Consider 18 molecules from patent US7807701B2, “Dibenzylamine compounds and pharmaceutical use thereof” (Japan Tobacco Inc., priority 2002, dated 2010).

The structures appear in SMILES notation. Counter-ions that a name gives are not always drawn.

The experiment deals with T1, CETP (Homo sapiens, UniProt P11597).
T1 construct: The donor lipoprotein obtained above was added to plasma of healthy subject; from tissue; host or cells: whole plasma of healthy subject
T1 sequence (P11597 18-493): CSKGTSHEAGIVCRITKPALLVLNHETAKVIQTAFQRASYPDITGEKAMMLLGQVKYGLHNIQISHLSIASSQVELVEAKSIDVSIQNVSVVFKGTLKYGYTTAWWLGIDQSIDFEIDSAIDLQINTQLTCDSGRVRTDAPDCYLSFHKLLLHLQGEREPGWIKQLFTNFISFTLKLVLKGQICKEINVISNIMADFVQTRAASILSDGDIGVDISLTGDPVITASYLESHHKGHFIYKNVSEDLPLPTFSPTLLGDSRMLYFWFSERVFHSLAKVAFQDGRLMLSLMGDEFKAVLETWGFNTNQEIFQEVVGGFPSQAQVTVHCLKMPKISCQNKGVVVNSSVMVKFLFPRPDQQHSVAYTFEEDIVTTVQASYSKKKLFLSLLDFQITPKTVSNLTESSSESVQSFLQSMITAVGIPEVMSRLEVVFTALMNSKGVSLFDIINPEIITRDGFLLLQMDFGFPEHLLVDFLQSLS
As to the kind of experiment: Inhibitory effect in vitro on CETP activity in total plasma. The class given is biochemical. The settings on record: plasma of healthy subject with [3H]CE-HDL3, 37° C., 4 hr; average values. As for the experimental part:
Potassium bromide (KBr) was added to plasma (40 mL) of healthy subject and the mixture was adjusted to have a specific density d=1.125 g/mL. The mixture was subjected to density gradient centrifugation (227,000×g, 4° C., 17 hr) and a fraction showing a specific density of d>1.125 g/mL (HDL3 fraction) was harvested. The obtained fraction was dialyzed against PBS solution [10 mmol/L Na2HPO4; 10 mmol/L NaH2PO4; 0.15 mol/L NaCl; […] (pH 7.4)]. Then, tritium-labeled cholesterol (37 MBq) was dissolved in 95% ethanol, gradually added to the above-mentioned HDL3 fraction with stirring and incubated at 37° C. for 18 hr. [By this operation, tritium-labeled cholesterol was esterified by the action of lecithin acyl transferase (LCAT) present on the HDL3 surface and taken up into HDL3 as tritium-labeled cholesteryl ester ([^3H]CE)]. After incubation, KBr was added, the mixture was adjusted to have a specific density d=1.21 g/mL, subjected to density gradient centrifugation (227,000×g, 4° C., 17 hr) and a fraction of specific density […] was harvested. The obtained fraction was dialyzed against the aforementioned PBS solution to give HDL3 incorporating [^3H]CE ([^3H]CE-HDL3, specific density: 1.125<d<1.21, specific activity: 10,000 dpm/μL), which was used as a donor lipoprotein.
The donor lipoprotein obtained above was added to plasma of healthy subject to prepare a [^3H]CE-HDL3-containing plasma (1,000 dpm/μL). The compound was dissolved in dimethyl formamide. A solution of the compound or a solvent alone (2 μL) and the [^3H]CE-HDL3-containing plasma (100 μL) were added into a microtube, and this was incubated at 37° C. or 4° C. for 4 hr. After ice-cooling, TBS solution [100 μL, 20 mmol/L Tris; 0.15 mol/L NaCl (pH 7.4)] containing 1 mol/L magnesium chloride and 2% dextran sulfate was added to each microtube and the mixture was thoroughly stirred. After keeping at 4° C. for 30 min, the mixture was centrifuged (10,000×g, 4° C., 10 min), and the radioactivity in the obtained supernatant (HDL fraction) was measured with a scintillation counter. […] The concentration of the compound necessary for inhibiting the CETP activity by 50% was calculated as an IC50 value.
In the case of `CCN(C[C@H]1CC[C@H](CC(=O)O)CC1)c1cc2c(cc1CN(Cc1cc(C(F)(F)F)cc(C(F)(F)F)c1)c1nnn(C)n1)CCC2` [Example 111, trans-(4-{[N-(6-{[N′-[3,5-bis(trifluoromethyl)benzyl]-N′-(2-methyl-2H-tetrazol-5-yl)amino]methyl}indan-5-yl)-N-ethylamino]methyl}cyclohexyl)acetic acid hydrochloride], it took 190 nM to reach half-maximal inhibition (IC50). The molecule `CCN(CC(C)(C)CCCC(=O)O)c1cc2c(cc1CN(Cc1cc(C(F)(F)F)cc(C(F)(F)F)c1)c1nnn(C)n1)CCC2` [Example 120, 6-[N-(6-{[N′-[3,5-bis(trifluoromethyl)benzyl]-N′-(2-methyl-2H-tetrazol-5-yl)amino]methyl}indan-5-yl)-N-ethylamino]-5,5-dimethylhexanoic acid hydrochloride] showed an IC50 of 280 nM. On to `CCN(CC1CCCC1)c1cc2c(cc1CN(Cc1cc(C(F)(F)F)cc(C(F)(F)F)c1)c1nnn(C)n1)CCC2` [Example 4, N-[3,5-bis(trifluoromethyl)benzyl]-N-[6-(N′-cyclopentylmethyl-N′-ethylamino)indan-5-ylmethyl]-(2-methyl-2H-tetrazol-5-yl)amine hydrochloride], for which the IC50 worked out at 180 nM. `CCCN(C[C@H]1CC[C@H](C(=O)O)CC1)c1ccc(OC(F)(F)F)cc1CN(Cc1cc(C(F)(F)F)cc(C(F)(F)F)c1)c1nnn(C)n1` [Example 121, trans-4-{[N-(2-{[N′-[3,5-bis(trifluoromethyl)benzyl]-N′-(2-methyl-2H-tetrazol-5-yl)amino]methyl}-4-trifluoromethoxyphenyl)-N-propylamino]methyl}cyclohexanecarboxylic acid hydrochloride]: the midpoint of inhibition, the IC50, lay at 230 nM. This IC50 and that of the molecule before are within 1.5-fold of each other. In the case of `CCN(CCCCC(=O)O)c1ccc(C(F)(F)F)cc1CN(Cc1cc(C(F)(F)F)cc(C(F)(F)F)c1)c1nnn(C)n1` [Example 86, 5-[N-(2-{[N′-[3,5-bis(trifluoromethyl)benzyl]-N′-(2-methyl-2H-tetrazol-5-yl)amino]methyl}-4-trifluoromethylphenyl)-N-ethylamino]pentanoic acid hydrochloride], the midpoint of inhibition, the IC50, lay at 941 nM.

Consider `CCN(CCCCC(=O)OC)c1cc2c(cc1CN(Cc1cc(C(F)(F)F)cc(C(F)(F)F)c1)c1ncn(C)n1)CCCC2` [Example 74, methyl 5-[N-(3-{[N′-[3,5-bis(trifluoromethyl)benzyl]-N′-(1-methyl-1H-[1,2,4]triazol-3-yl)amino]methyl}-5,6,7,8-tetrahydronaphthalen-2-yl)-N-ethylamino]pentanoate hydrochloride], for which the 50% inhibitory concentration (IC50) came out at 400 nM. `CCN(C[C@H]1CC[C@H](C(=O)O)CC1)c1cc2c(cc1CN(Cc1cc(C#N)cc(C(F)(F)F)c1)c1nnn(C)n1)CCC2` [Example 52, trans-4-{[N-(6-{[N′-(3-cyano-5-trifluoromethylbenzyl)-N′-(2-methyl-2H-tetrazol-5-yl)amino]methyl}indan-5-yl)-N-ethylamino]methyl}cyclohexanecarboxylic acid hydrochloride] showed a half-maximal inhibitory concentration (IC50) of 370 nM. The molecule `CCN(C[C@H]1CC[C@H](C(=O)O)CC1)c1cc2c(cc1CN(Cc1cc(C#N)cc(C(F)(F)F)c1)c1ncn(C)n1)CCC2` [Example 60, trans-4-{[N-(6-{[N′-(3-cyano-5-trifluoromethylbenzyl)-N′-(1-methyl-1H-[1,2,4]triazol-3-yl)amino]methyl}indan-5-yl)-N-ethylamino]methyl}cyclohexanecarboxylic acid] showed a half-maximal inhibitory concentration (IC50) of 780 nM.

For the molecule `CCN(C[C@H]1CC[C@H](C(=O)O)CC1)c1ccc(OC(F)(F)F)cc1CN(Cc1cc(Cl)cc(C(F)(F)F)c1)c1nnn(C)n1` [Example 131, trans-4-{[N-(2-{[N′-(3-chloro-5-trifluoromethylbenzyl)-N′-(2-methyl-2H-tetrazol-5-yl)amino]methyl}-4-trifluoromethoxyphenyl)-N-ethylamino]methyl}cyclohexanecarboxylic acid hydrochloride], inhibition was half-maximal at 170 nM (IC50). This IC50 is about 4.6-fold lower than that of the molecule before. The figure for `CCN(CCCCC(=O)O)c1cc2c(cc1CN(Cc1cc(C(F)(F)F)cc(C(F)(F)F)c1)c1ncn(C)n1)CCC2` [Example 58, 5-[N-(6-{[N′-[3,5-bis(trifluoromethyl)benzyl]-N′-(1-methyl-1H-[1,2,4]triazol-3-yl)amino]methyl}indan-5-yl)-N-ethylamino]pentanoic acid hydrochloride] is 715 nM. `CCN(C[C@H]1CC[C@H](C(=O)O)CC1)c1cc2c(cc1CN(Cc1cc(C#N)cc(C(F)(F)F)c1)c1nnn(C)n1)CCCC2` [Example 68, trans-4-{[N-(3-{[N′-(3-cyano-5-trifluoromethylbenzyl)-N′-(2-methyl-2H-tetrazol-5-yl)amino]methyl}-5,6,7,8-tetrahydronaphthalen-2-yl)-N-ethylamino]methyl}cyclohexanecarboxylic acid hydrochloride] registered an IC50 of 280 nM. In the case of `CCN(CC1CCCC1)c1cc2c(cc1CN(Cc1cc(C(F)(F)F)cc(C(F)(F)F)c1)c1ccn(C)n1)CCC2` [Example 27, N-[3,5-bis(trifluoromethyl)benzyl]-N-[6-(N′-cyclopentylmethyl-N′-ethylamino)indan-5-ylmethyl]-(1-methyl-1H-pyrazol-3-yl)amine hydrochloride], the half-inhibitory concentration (IC50) stood at 580 nM. `CCN(C[C@H]1CC[C@H](C(=O)O)CC1)c1cc2c(cc1CN(Cc1cc(C(F)(F)F)cc(C(F)(F)F)c1)c1cc(C)no1)CCCC2` [Example 71, trans-4-{[N-(3-{[N′-[3,5-bis(trifluoromethyl)benzyl]-N′-(3-methylisoxazol-5-yl)amino]methyl}-5,6,7,8-tetrahydronaphthalen-2-yl)-N-ethylamino]methyl}cyclohexanecarboxylic acid hydrochloride] showed an IC50 of 440 nM. This IC50 and that of the molecule before are within 1.5-fold of each other. Consider `CCN(CCCCC(=O)O)c1cc2c(cc1CN(Cc1cc(C#N)cc(C(F)(F)F)c1)c1cc(C)no1)CCCC2` [Example 79, 5-[N-(3-{[N′-(3-cyano-5-trifluoromethylbenzyl)-N′-(3-methylisoxazol-5-yl)amino]methyl}-5,6,7,8-tetrahydronaphthalen-2-yl)-N-ethylamino]pentanoic acid hydrochloride], for which the IC50 was 890 nM. In the case of `CCN(CC1CCCC1)c1cc2c(cc1CN(Cc1cc(C#N)cc(C(F)(F)F)c1)c1nnn(C)n1)CCCC2` [Example 2, 3-{[N-[3-(N′-cyclopentylmethyl-N′-ethylamino)-5,6,7,8-tetrahydronaphthalen-2-ylmethyl]-N-(2-methyl-2H-tetrazol-5-yl)amino]methyl}-5-trifluoromethylbenzonitrile], the IC50 came out at 80 nM. With `CCN(CCCCC(=O)O)c1cc2c(cc1CN(Cc1cc(C(F)(F)F)cc(C(F)(F)F)c1)c1nnn(C)n1)CCCC2` [Example 80, 5-[N-(3-{[N′-[3,5-bis(trifluoromethyl)benzyl]-N′-(2-methyl-2H-tetrazol-5-yl)amino]methyl}-5,6,7,8-tetrahydronaphthalen-2-yl)-N-ethylamino]pentanoic acid hydrochloride], the half-inhibitory concentration (IC50) is 430 nM. For the molecule `CCN(CC1CCCC1)c1cc2c(cc1CN(Cc1cc(C(F)(F)F)cc(C(F)(F)F)c1)c1nnn(CCO)n1)CCC2` [Example 73, 2-(5-{N-[3,5-bis(trifluoromethyl)benzyl]-N-[6-(N′-cyclopentylmethyl-N′-ethylamino)indan-5-ylmethyl]amino}tetrazol-2-yl)ethanol hydrochloride], the IC50 is 190 nM.

Consider `CCN(CCCCC(=O)O)c1cc2c(cc1CN(Cc1cc(C(F)(F)F)cc(C(F)(F)F)c1)c1ncn(C)n1)CCCC2` [Example 76, 5-[N-(3-{[N′-[3,5-bis(trifluoromethyl)benzyl]-N′-(1-methyl-1H-[1,2,4]triazol-3-yl)amino]methyl}-5,6,7,8-tetrahydronaphthalen-2-yl)-N-ethylamino]pentanoic acid hydrochloride], for which inhibition was half-maximal at 290 nM (IC50). Compared with the last molecule, the IC50 is about 1.5-fold higher.

A word on the IC50: it is the concentration needed to halve the response being measured. High values mean a need for much substance, low ones inhibition by little substance.
